# Values of other authors as cited in patent US9782610B2, “Nontoxic, non-endocrine disrupting, cytoprotective, UV-radiation resistant sunblock compositions” (3rd Rock Sunblock, Inc., priority 2007, dated 2017).
# Experiments:
# estrogenic activity = conditions: uterine wet weight, cell height, cell proliferation assays
smiles,measurement,setting,value
"Cc1ccc(C=C2C(=O)C3(C)CCC2C3(C)C)cc1 (stereo not drawn) [Example 4-MBC, 3-(4-methylbenxylidene) camphor]",activity in cells / cancer cell growth,cancer cells,made cancer cells grow more rapidly
same,estrogenicity,estrogenic activity,highly estrogenic
COc1ccc(C(=O)c2ccccc2)c(O)c1 [Benzophenone-3],activity in cells / cancer cell growth,cancer cells,made cancer cells grow more rapidly
same,estrogenicity,estrogenic activity,highly estrogenic
CC1CC(OC(=O)c2ccccc2O)CC(C)(C)C1 (stereo not drawn) [homosalate],activity in cells / cancer cell growth,cancer cells,made cancer cells grow more rapidly
CCCCC(CC)COC(=O)c1ccc(N(C)C)cc1 (stereo not drawn) [octyl-dimethyl-PABA],activity in cells / cancer cell growth,cancer cells,made cancer cells grow more rapidly
